According to the supplement of paper PMC10307832:

How the values were obtained:
Test in all cases: relative viability (nuclei count vs DMSO), 5 days (fraction); higher = more cells survive
Ruboxistaurin = compound: CN(C)C[C@@H]1CCn2cc(c3ccccc32)C2=C(C(=O)NC2=O)c2cn(c3ccccc23)CCO1 [Ruboxistaurin]
In short: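 A plate was accepted only when its control CV was below 25% and the cells had doubled at least once. Viability is defined from nuclear counts as treated wells divided by vehicle wells, with the median taken across plates. That median covers lung cancer cell lines grown in 1536-well plates, dosed by pinning at five √10-spaced library-drug concentrations, and counted in MetaXpress from 4× Hoechst images after 5 days.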

[1] = compound: CN(C)C[C@@H]1CCn2cc(c3ccccc32)C2=C(C(=O)NC2=O)c2cn(c3ccccc23)CCO1 [Ruboxistaurin] + C[C@]1(O)C[C@@H](c2nc(-c3ccc4ccc(-c5ccccc5)nc4c3)c3c(N)nccn32)C1 [Linsitinib] (partner 1 µM)
In short: (§1)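 Lung cancer cell lines, seeded in 1536-well plates, were treated the following day by pin tool with a single drug or with five library-drug doses (not always all listed) in √10 steps on top of a fixed anchor-drug dose. Cells were fixed and nuclei stained in one step after 5 days, and nuclei were counted. Relative viability is the nuclei count for treated wells divided by that for vehicle wells, reported as medians of duplicate plates.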

[2] = compound: CN(C)C[C@@H]1CCn2cc(c3ccccc32)C2=C(C(=O)NC2=O)c2cn(c3ccccc23)CCO1 [Ruboxistaurin] + COc1cc2c(Oc3ccc(NC(=O)C4(C(=O)Nc5ccc(F)cc5)CC4)cc3F)ccnc2cc1OCCCN1CCOCC1 [Foretinib] (partner 0.25 µM)
In short: as §1

[3] = compound: CN(C)C[C@@H]1CCn2cc(c3ccccc32)C2=C(C(=O)NC2=O)c2cn(c3ccccc23)CCO1 [Ruboxistaurin] + N=C(N)NC(=N)NCCc1ccccc1 [Phenformin] (partner 250 µM)
In short: as §1

[4] = compound: CN(C)C[C@@H]1CCn2cc(c3ccccc32)C2=C(C(=O)NC2=O)c2cn(c3ccccc23)CCO1 [Ruboxistaurin] + C[C@@H](Oc1cc(-c2cnn(C3CCNCC3)c2)cnc1N)c1c(Cl)ccc(F)c1Cl [Crizotinib] (partner 1 µM)
In short: as §1

| Cell Line | relative viability (Ruboxistaurin; 0.08 µM) | relative viability (Ruboxistaurin; 0.8 µM) | relative viability (Ruboxistaurin; 2.53 µM) | relative viability (Ruboxistaurin; 8 µM) | relative viability ([1]; first compound 0.08 µM) | relative viability ([1]; first compound 0.8 µM) | relative viability ([1]; first compound 2.53 µM) | relative viability ([1]; first compound 8 µM) | relative viability ([2]; first compound 0.08 µM) | relative viability ([2]; first compound 0.8 µM) | relative viability ([2]; first compound 2.53 µM) | relative viability ([2]; first compound 8 µM) | relative viability ([3]; first compound 0.08 µM) | relative viability ([3]; first compound 0.8 µM) | relative viability ([3]; first compound 2.53 µM) | relative viability ([3]; first compound 8 µM) | relative viability ([4]; first compound 0.08 µM) | relative viability ([4]; first compound 0.8 µM) | relative viability ([4]; first compound 2.53 µM) | relative viability ([4]; first compound 8 µM) |
| --- | --- | --- | --- | --- | --- | --- | --- | --- | --- | --- | --- | --- | --- | --- | --- | --- | --- | --- | --- | --- |
| NCI-H1755 | 1.01 | 1.01 | 0.974 | 1.03 | 1.04 | 0.976 | 0.973 | 0.879 | 0.907 | 0.903 | 0.908 | 0.888 | 0.678 | 0.584 | 0.586 | 0.635 | 0.932 | 0.771 | 0.868 | 0.87 |
| NCI-H2087 | 1.17 | 0.976 | 1.05 | 1.06 | 1.13 | 0.874 | 0.98 | 0.884 | 1.2 | 0.934 | 1.07 | 0.876 | 0.494 | 0.409 | 0.481 | 0.472 | 0.898 | 0.735 | 1.08 | 1.15 |
| H3255 | 1.09 | 0.919 | 0.99 | 0.99 | 1.09 | 0.953 | 0.943 | 0.931 | 0.849 | 0.867 | 0.879 | 0.876 | 0.354 | 0.326 | 0.345 | 0.352 | 1.01 | 0.835 | 0.89 | 0.809 |
| SK-MES-1 | 1.07 | 0.91 | 1.02 | 0.898 | 1.08 | 1 | 1.02 | 0.996 | 1.08 | 0.791 | 0.969 | 0.858 | 0.678 | 0.607 | 0.658 | 0.639 | 1.06 | 1.03 | 0.979 | 0.972 |
| NCI-H23 | 0.974 | 0.892 | 1.03 | 0.886 | 0.627 | 0.402 | 0.544 | 0.484 | 1 | 0.897 | 1.1 | 0.936 | 0.766 | 0.781 | 0.819 | 0.852 | 0.542 | 0.395 | 0.552 | 0.533 |
| HCC-827 | 1.05 | 1.03 | 1.09 | 1.09 | 0.933 | 0.962 | 0.951 | 1 | 1.17 | 1.03 | 1.03 | 1 | 0.454 | 0.397 | 0.427 | 0.384 | 0.977 | 0.907 | 1.01 | 0.96 |
| HCC-78 | 1.11 | 0.996 | 1.1 | 0.949 | 0.531 | 0.501 | 0.455 | 0.482 | 0.553 | 0.593 | 0.546 | 0.528 | 0.691 | 0.906 | 0.779 | 0.739 | 0.31 | 0.351 | 0.323 | 0.291 |
| UMC-11 | 0.964 | 0.914 | 0.974 | 0.762 | 0.976 | 0.884 | 0.987 | 0.642 | 1.05 | 0.951 | 0.904 | 0.646 | 0.321 | 0.33 | 0.315 | 0.354 | 0.537 | 0.554 | 0.64 | 0.465 |
| NCI-H1975 | 0.945 | 0.834 | 1.02 | 0.927 | 1.07 | 0.916 | 0.938 | 0.769 | 0.979 | 1.03 | 1.05 | 0.856 | 0.431 | 0.392 | 0.414 | 0.418 | 0.954 | 0.846 | 0.954 | 0.862 |
| NCI-H1563 | 1 | 0.947 | 1.07 | 0.886 | 1.34 | 1.14 | 1.37 | 1.16 | 1.03 | 0.892 | 0.946 | 0.856 | 0.67 | 0.654 | 0.702 | 0.693 | 0.947 | 0.873 | 0.938 | 0.741 |
| COR-L23 | 1.1 | 0.955 | 1.14 | 1.17 | 0.928 | 0.815 | 1.03 | 0.851 | 1.06 | 0.951 | 1.11 | 1.05 | 0.408 | 0.41 | 0.519 | 0.493 | 0.725 | 0.621 | 0.689 | 0.777 |
| CAL-12T | 1.15 | 0.879 | 1.03 | 1.09 | 0.884 | 0.679 | 0.897 | 0.927 | 1.28 | 1.18 | 1.16 | 1.16 | 0.597 | 0.585 | 0.568 | 0.563 | 0.585 | 0.491 | 0.751 | 0.746 |
| SW 1573 | 1.16 | 0.871 | 1.02 | 0.907 | 0.879 | 0.839 | 0.799 | 0.772 | 1.15 | 0.866 | 1.03 | 0.762 | 0.408 | 0.141 | 0.445 | 0.282 | 0.855 | 0.74 | 0.942 | 0.688 |
| NCI-H2126 | 1 | 0.898 | 1.04 | 0.934 | 0.744 | 0.641 | 0.749 | 0.665 | 1.14 | 1.13 | 1.2 | 1.12 | 0.573 | 0.52 | 0.541 | 0.52 | 1.03 | 0.92 | 1.07 | 1 |
